Measured values: paper PMC6437697 (Journal of Medicinal Chemistry, 2019)

How the values were obtained:
Assay in all cases: KINOMEscan
Type in all cases: binding
Conditions in all cases: read-out: % control activity remaining
ACVRL1 = target: T1, ACVRL1 (Homo sapiens, UniProt P37023)
T1 construct: purchased Eurofins DiscoverX KINOMEscan

CAMKK1 = target: T2, CAMKK1 (Homo sapiens, UniProt Q8N5S9)
T2 construct: purchased Eurofins DiscoverX KINOMEscan

CDK8 = target: T3, CDK8 (Homo sapiens, UniProt P49336)
T3 construct: purchased Eurofins DiscoverX KINOMEscan

FGFR1 = target: T4, FGFR1 (Homo sapiens, UniProt P11362)
T4 construct: purchased Eurofins DiscoverX KINOMEscan

GAK = target: T5, GAK (Homo sapiens, UniProt O14976)
T5 construct: purchased Eurofins DiscoverX KINOMEscan
T5 sequence (O14976 1-1311): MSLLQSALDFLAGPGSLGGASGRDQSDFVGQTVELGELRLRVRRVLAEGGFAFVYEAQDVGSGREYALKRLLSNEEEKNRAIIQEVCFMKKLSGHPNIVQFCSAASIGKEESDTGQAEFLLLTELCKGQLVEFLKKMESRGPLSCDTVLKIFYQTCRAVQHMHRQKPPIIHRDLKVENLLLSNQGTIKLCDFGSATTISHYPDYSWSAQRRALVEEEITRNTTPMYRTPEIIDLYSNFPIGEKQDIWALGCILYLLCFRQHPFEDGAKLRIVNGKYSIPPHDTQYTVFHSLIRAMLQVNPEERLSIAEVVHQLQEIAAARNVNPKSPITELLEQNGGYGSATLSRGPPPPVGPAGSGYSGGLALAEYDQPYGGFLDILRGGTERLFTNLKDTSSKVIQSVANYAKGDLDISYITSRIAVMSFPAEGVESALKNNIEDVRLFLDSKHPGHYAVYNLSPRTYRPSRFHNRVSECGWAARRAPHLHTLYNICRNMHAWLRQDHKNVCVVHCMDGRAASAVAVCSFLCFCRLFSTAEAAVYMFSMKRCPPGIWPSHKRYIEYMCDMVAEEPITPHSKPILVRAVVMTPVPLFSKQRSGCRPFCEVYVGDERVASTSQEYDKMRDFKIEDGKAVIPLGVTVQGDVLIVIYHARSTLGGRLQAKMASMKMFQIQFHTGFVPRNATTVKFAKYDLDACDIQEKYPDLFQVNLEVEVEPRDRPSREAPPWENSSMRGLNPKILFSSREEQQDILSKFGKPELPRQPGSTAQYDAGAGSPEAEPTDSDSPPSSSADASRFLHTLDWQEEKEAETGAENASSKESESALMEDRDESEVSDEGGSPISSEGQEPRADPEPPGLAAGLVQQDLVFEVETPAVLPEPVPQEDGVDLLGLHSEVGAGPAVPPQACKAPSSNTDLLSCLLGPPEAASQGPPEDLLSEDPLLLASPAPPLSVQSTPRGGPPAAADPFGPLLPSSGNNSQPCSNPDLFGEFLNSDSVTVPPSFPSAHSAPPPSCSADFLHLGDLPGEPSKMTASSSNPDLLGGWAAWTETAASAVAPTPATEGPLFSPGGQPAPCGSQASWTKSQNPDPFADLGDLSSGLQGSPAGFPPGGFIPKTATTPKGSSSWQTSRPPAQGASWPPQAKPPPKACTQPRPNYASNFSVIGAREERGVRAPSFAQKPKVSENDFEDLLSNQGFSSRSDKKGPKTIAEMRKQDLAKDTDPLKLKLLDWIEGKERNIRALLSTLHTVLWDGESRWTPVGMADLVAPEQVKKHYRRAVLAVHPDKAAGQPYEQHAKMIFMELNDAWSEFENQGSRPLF

HIPK2 = target: T6, HIPK2 (Homo sapiens, UniProt Q9H2X6)
T6 construct: purchased Eurofins DiscoverX KINOMEscan

JNK1 = target: T7, JNK1 (Homo sapiens, UniProt P45983)
T7 construct: purchased Eurofins DiscoverX KINOMEscan

MKNK1 = target: T8, MKNK1 (Homo sapiens, UniProt Q9BUB5)
T8 construct: purchased Eurofins DiscoverX KINOMEscan

PIK3CA(H1047L) = target: T9, PIK3CA(H1047L) (Homo sapiens, UniProt P42336, H1047L)
T9 construct: purchased Eurofins DiscoverX KINOMEscan

PKAC-beta = target: T10, PKAC-beta (Homo sapiens, UniProt P22694)
T10 construct: purchased Eurofins DiscoverX KINOMEscan

TLK2 = target: T11, TLK2 (Homo sapiens, UniProt Q86UE8)
T11 construct: purchased Eurofins DiscoverX KINOMEscan

TRPM6 = target: T12, TRPM6 (Homo sapiens, UniProt Q9BX84)
T12 construct: purchased Eurofins DiscoverX KINOMEscan

T1 sequence (P37023 22-503): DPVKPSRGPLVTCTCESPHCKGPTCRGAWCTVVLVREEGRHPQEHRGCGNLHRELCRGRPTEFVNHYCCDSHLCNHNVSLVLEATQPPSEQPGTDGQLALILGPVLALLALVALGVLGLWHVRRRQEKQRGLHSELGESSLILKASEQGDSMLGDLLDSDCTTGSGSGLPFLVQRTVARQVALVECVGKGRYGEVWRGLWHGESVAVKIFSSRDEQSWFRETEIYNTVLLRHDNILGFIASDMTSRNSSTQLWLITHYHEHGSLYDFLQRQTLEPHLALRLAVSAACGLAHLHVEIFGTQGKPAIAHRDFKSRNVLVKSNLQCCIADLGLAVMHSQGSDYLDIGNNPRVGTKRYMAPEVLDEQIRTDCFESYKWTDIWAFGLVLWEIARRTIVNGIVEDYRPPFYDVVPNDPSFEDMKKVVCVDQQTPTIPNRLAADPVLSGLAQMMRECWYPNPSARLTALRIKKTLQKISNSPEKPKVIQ
T8 sequence (Q9BUB5 whole entry): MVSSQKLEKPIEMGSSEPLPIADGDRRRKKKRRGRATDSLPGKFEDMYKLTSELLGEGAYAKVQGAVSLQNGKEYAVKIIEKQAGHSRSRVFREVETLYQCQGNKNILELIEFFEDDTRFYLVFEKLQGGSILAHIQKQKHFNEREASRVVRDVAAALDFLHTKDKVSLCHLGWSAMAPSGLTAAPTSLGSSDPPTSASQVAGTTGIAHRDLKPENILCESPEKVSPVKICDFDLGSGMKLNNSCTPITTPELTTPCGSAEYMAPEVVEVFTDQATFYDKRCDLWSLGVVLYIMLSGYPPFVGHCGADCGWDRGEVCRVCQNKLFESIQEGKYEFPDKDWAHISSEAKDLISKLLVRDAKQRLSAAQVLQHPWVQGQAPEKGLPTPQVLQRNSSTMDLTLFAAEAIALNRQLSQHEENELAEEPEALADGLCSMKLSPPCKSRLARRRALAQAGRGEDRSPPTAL
T6 sequence (Q9H2X6 whole entry): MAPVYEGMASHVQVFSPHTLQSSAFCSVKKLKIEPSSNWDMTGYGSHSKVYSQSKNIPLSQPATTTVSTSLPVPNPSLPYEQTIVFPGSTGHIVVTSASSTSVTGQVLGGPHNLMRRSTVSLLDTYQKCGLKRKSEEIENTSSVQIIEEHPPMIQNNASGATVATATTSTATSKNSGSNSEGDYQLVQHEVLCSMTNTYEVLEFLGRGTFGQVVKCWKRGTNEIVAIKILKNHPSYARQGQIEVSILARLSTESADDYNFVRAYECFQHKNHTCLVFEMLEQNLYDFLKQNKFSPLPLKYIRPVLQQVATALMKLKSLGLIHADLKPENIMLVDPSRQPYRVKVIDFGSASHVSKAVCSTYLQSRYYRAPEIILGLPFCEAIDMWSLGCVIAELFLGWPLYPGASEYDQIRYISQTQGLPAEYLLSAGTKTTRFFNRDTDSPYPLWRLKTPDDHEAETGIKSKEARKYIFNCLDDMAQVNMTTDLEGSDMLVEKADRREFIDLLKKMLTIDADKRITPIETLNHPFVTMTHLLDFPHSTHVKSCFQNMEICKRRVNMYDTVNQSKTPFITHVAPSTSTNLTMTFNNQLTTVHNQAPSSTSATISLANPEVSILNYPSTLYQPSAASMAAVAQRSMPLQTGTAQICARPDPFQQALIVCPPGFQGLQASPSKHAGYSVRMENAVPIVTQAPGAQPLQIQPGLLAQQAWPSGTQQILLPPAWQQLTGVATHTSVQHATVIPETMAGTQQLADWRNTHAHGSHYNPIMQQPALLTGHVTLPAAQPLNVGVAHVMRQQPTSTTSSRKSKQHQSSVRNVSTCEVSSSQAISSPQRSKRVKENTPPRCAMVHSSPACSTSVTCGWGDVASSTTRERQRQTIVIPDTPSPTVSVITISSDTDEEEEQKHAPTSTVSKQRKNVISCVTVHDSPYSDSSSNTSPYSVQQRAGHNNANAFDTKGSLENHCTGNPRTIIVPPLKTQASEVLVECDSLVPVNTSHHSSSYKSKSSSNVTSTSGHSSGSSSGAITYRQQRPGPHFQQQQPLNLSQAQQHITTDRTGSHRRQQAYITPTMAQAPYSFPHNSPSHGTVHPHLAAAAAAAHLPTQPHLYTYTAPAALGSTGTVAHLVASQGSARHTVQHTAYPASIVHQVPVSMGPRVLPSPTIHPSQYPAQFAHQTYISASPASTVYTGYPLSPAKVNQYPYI
T4 sequence (P11362 22-822): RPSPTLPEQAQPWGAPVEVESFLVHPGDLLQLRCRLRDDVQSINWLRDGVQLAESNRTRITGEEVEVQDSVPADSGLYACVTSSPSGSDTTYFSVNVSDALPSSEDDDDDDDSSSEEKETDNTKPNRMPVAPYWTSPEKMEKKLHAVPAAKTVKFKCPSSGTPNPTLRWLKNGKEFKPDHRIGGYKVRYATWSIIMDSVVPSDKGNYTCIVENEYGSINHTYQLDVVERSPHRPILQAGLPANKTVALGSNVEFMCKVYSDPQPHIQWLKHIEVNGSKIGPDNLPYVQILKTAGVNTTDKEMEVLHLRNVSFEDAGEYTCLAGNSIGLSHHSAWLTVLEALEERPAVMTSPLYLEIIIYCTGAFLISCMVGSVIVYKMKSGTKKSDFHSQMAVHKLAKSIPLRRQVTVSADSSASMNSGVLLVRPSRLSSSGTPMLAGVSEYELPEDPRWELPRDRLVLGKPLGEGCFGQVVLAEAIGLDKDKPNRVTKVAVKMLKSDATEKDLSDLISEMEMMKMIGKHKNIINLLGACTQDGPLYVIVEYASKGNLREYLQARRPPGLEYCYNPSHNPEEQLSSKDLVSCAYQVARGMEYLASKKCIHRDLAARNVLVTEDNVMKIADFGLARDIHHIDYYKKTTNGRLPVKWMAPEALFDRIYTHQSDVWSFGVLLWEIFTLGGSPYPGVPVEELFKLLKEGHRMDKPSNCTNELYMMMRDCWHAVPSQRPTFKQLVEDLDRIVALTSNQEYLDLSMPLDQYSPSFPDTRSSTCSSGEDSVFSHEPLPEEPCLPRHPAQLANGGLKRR
T11 sequence (Q86UE8 whole entry): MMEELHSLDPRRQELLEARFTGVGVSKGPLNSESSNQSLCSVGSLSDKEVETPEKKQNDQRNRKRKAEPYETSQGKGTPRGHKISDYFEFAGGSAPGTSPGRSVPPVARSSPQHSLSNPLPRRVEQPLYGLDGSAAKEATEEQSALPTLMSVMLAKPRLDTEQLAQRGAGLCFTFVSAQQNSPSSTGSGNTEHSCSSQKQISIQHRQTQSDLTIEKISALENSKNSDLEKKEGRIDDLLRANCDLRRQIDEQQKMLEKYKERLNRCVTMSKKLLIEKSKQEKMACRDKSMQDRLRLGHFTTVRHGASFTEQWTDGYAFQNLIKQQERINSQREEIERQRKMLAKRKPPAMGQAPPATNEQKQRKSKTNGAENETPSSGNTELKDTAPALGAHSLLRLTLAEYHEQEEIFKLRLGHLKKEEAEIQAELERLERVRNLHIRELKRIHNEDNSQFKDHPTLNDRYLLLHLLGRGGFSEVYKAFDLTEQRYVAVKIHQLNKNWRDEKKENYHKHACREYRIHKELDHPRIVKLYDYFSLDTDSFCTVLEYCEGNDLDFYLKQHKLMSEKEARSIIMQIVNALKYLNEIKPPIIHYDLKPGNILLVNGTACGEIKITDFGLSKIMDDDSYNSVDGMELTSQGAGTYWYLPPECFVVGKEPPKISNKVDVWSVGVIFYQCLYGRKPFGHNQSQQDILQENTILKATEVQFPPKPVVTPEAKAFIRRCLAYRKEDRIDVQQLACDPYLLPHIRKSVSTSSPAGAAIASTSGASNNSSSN
T2 sequence (Q8N5S9 whole entry): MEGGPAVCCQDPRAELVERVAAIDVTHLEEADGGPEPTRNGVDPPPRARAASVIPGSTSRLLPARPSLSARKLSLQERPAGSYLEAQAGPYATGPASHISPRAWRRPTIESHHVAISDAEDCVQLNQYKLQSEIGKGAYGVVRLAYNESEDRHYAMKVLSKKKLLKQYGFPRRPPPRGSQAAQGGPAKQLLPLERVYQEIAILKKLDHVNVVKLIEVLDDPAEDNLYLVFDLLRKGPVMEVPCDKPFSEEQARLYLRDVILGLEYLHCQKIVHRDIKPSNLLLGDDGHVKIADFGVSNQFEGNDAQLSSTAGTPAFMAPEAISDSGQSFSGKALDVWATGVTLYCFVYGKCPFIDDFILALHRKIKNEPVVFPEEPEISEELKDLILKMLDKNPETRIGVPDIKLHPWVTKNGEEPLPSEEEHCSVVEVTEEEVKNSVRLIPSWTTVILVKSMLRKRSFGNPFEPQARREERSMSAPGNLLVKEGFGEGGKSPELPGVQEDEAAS
T7 sequence (P45983 whole entry): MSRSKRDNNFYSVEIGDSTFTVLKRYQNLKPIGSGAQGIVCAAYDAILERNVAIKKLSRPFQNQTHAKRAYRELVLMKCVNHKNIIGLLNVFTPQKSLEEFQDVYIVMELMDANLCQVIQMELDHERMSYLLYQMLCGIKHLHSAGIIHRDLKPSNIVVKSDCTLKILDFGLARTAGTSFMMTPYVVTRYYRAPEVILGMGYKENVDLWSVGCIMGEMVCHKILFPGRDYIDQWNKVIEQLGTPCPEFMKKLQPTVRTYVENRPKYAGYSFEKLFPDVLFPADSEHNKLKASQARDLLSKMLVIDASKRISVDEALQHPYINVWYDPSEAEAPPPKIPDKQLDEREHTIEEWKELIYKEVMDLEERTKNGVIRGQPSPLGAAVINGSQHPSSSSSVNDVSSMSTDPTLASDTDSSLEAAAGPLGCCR

Compound: Clc1cc(NCC2CC2)c2ncc(-c3ccc4[nH]ncc4c3)n2n1 [compound 2, 6-Chloro-N-(cyclopropylmethyl)-3-(1H-indazol-5-yl)imidazo[1,2-b]pyridazin-8-amine]
- remaining binding at 1 µM (ACVRL1): 98%
- remaining binding at 1 µM (CAMKK1): 94%
- remaining binding at 1 µM (CDK8): 82%
- remaining binding at 1 µM (FGFR1): 99%
- remaining binding at 1 µM (GAK): 8.8%
- remaining binding at 1 µM (HIPK2): 62%
- remaining binding at 1 µM (JNK1): 91%
- remaining binding at 1 µM (MKNK1): 82%
- remaining binding at 1 µM (PIK3CA(H1047L)): 95%
- remaining binding at 1 µM (PKAC-beta): 86%
- remaining binding at 1 µM (TLK2): 98%
- remaining binding at 1 µM (TRPM6): 100%

Compound: O=C(CN1CCOCC1)N[C@H]1CC[C@H](Nc2cc(Cl)nn3c(-c4ccc5[nH]ncc5c4)cnc23)CC1 [compound 26]
- remaining binding at 1 µM (ACVRL1): 100%
- remaining binding at 1 µM (CAMKK1): 52%
- remaining binding at 1 µM (CDK8): 97%
- remaining binding at 1 µM (FGFR1): 94%
- remaining binding at 1 µM (GAK): 10%
- remaining binding at 1 µM (HIPK2): 0.7%
- remaining binding at 1 µM (JNK1): 83%
- remaining binding at 1 µM (MKNK1): 88%
- remaining binding at 1 µM (PIK3CA(H1047L)): 98%
- remaining binding at 1 µM (PKAC-beta): 99%
- remaining binding at 1 µM (TLK2): 95%
- remaining binding at 1 µM (TRPM6): 92%

Compound: CN1CCC(CNc2cc(Cl)nn3c(-c4cc5nc(Nc6ccccc6)[nH]c5cc4F)cnc23)CC1 [compound 31, 6-Chloro-3-(6-fluoro-2-(phenylamino)-1H-benzo[d]imidazol-5-yl)-N-((1-methylpiperidin-4-yl)methyl)imidazo[1,2-b]pyridazin-8-amine]
- remaining binding at 1 µM (ACVRL1): 100%
- remaining binding at 1 µM (CAMKK1): 98%
- remaining binding at 1 µM (CDK8): 70%
- remaining binding at 1 µM (FGFR1): 87%
- remaining binding at 1 µM (GAK): 33%
- remaining binding at 1 µM (HIPK2): 85%
- remaining binding at 1 µM (JNK1): 67%
- remaining binding at 1 µM (MKNK1): 83%
- remaining binding at 1 µM (PIK3CA(H1047L)): 70%
- remaining binding at 1 µM (PKAC-beta): 90%
- remaining binding at 1 µM (TLK2): 89%
- remaining binding at 1 µM (TRPM6): 85%
